How the values were obtained:
Bcl-2 = Bcl-2 (Homo sapiens (Human), UniProt P10415); experiment: Bcl-2/Bim Fluorescence Polarization Assay (FPA); type: binding
Experimental: Bcl-2/Bim Fluorescence Polarization Assay (FPA)
The assays were performed in black flat-bottom 384-well plates. […] The reaction was incubated at room temperature for 60 minutes and fluorescence polarization of the reaction was detected on the LJL Plate Reader. Inhibition data were calculated from mP values generated by the no protein control reactions for 100% inhibition and vehicle-only reactions for 0% inhibition. The final concentrations of reagents in the assay were 4.9 nM BCL-2, 5 nM fluoresceinated 18-mer BIM peptide and 1% DMSO. […] Compounds were dissolved at 10 mM in dimethylsulfoxide (DMSO) and evaluated at eleven concentrations. IC50 values were derived by non-linear regression analysis.

Bcl-xL = Bcl-xL (Homo sapiens (Human), UniProt Q07817); experiment: Bcl-xL/Bim Fluorescence Resonance Energy Transfer Assay (FRET); type: binding
Sequence of Bcl-xL (Q07817 whole entry): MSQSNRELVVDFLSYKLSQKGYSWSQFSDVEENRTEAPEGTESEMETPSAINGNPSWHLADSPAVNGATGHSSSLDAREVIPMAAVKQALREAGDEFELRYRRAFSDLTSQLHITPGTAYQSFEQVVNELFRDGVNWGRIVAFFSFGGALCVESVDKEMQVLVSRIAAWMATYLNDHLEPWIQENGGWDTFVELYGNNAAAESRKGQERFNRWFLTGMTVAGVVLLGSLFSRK
Experimental: Bcl-xL/Bim Fluorescence Resonance Energy Transfer Assay (FRET) The assays were performed in black flat-bottom 384-well plates. The final assay volume was 55 μl prepared from additions of Biotin-Bcl-xL (Bcl-xL: GENBANK® Accession No. […] The reaction was incubated at room temperature for 60 minutes. After 60 minutes, 5 μL of Streptavidin-Terbium FRET detection reagent (Perkin Elmer) was added to the reaction mixture and incubated at room temperature in the dark for 30 mins. […] Compounds were dissolved at 10 mM in dimethylsulfoxide (DMSO) and evaluated at eleven concentrations. IC50 values were derived by non-linear regression analysis.

Sequence of Bcl-2 (P10415 whole entry): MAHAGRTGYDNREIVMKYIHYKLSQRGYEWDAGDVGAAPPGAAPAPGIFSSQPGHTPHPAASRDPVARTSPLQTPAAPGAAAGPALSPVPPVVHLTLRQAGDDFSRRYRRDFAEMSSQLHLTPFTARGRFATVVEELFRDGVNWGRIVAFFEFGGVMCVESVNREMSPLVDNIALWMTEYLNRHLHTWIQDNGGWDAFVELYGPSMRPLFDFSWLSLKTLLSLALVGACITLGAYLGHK

SMILES	IC50 (Bcl-2)	IC50 (Bcl-xL)
CCCCN(CCCC)C(=O)c1nn(-c2ccc(C(=O)NS(=O)(=O)c3ccc4c(Cl)cccc4c3)cc2C(=O)N2CCc3ccccc3C2)c(C)c1Cl [Example 2, N,N-dibutyl-4-chloro-1-(4-(5-chloronaphthalen-2-ylsulfonylcarbamoyl)-2-(1,2,3,4-tetrahydroisoquinoline-2-carbonyl)phenyl)-5-methyl-1H-pyrazole-3-carboxamide]	200 nM	30 nM
CCCCN(CCCC)C(=O)c1nn(-c2ccc(C(=O)NS(=O)(=O)c3ccc4cccc(Cl)c4c3)cc2C(=O)N2CCc3ccccc3C2)c(C)c1Cl [Example 5, N,N-dibutyl-4-chloro-1-(4-(8-chloronaphthalen-2-ylsulfonylcarbamoyl)-2-(1,2,3,4-tetrahydroisoquinoline-2-carbonyl)phenyl)-5-methyl-1H-pyrazole-3-carboxamide]	30 nM	70 nM
CCCCN(CCCC)C(=O)c1nn(-c2ccc(C(=O)NS(=O)(=O)c3ccc4cccc(C#N)c4c3)cc2C(=O)N2CCc3ccccc3C2)c(C)c1Cl [Example 8, N,N-dibutyl-4-chloro-1-(4-(8-cyanonaphthalen-2-ylsulfonylcarbamoyl)-2-(1,2,3,4-tetrahydroisoquinoline-2-carbonyl)phenyl)-5-methyl-1H-pyrazole-3-carboxamide]	920 nM	20 nM
CCCCN(CCCC)C(=O)c1nn(-c2ccc(C(=O)NS(=O)(=O)c3ccc4ccccc4c3)cc2C(=O)N2Cc3ccccc3C[C@H]2CO)c(C)c1Cl [Example 91, N,N-Dibutyl-4-chloro-1-(2-((S)-3-(hydroxymethyl)-1,2,3,4-tetrahydroisoquinoline-2-carbonyl)-4-(naphthalen-2-ylsulfonylcarbamoyl)phenyl)-5-methyl-1H-pyrazole-3-carboxamide]	50 nM	–
CCCCN(CCCC)C(=O)c1nn(-c2ccc(C(=O)NS(=O)(=O)c3ccc4ccccc4c3)cc2C(=O)N2Cc3ccccc3C[C@H]2CNC2CCN(C)CC2)c(C)c1Cl [Example 106, N,N-Dibutyl-4-chloro-5-methyl-1-(2-((S)-3-((1-methylpiperidin-4-ylamino)methyl)-1,2,3,4-tetrahydroisoquinoline-2-carbonyl)-4-(naphthalen-2-ylsulfonylcarbamoyl)phenyl)-1H-pyrazole-3-carboxamide]	20 nM	–

Continued, values first:

IC50 (Bcl-2)	IC50 (Bcl-xL)	SMILES
8.13 nM	–	CCCCc1c(-c2ccc(C(=O)NS(=O)(=O)c3ccc4ccccc4c3)cc2C(=O)N2CCc3ccccc3C2)c(CO)nn1-c1ccc(OCC(O)CO)cc1 (racemic) [Example 258, (±)-4-(5-Butyl-1-(4-(2,3-dihydroxypropoxy)phenyl)-3-(hydroxymethyl)-1H-pyrazol-4-yl)-N-(naphthalen-2-ylsulfonyl)-3-(1,2,3,4-tetrahydroisoquinoline-2-carbonyl)benzamide]
30 nM	20 nM	CCCCN(CCCC)C(=O)c1nn(-c2ccc(C(=O)NS(=O)(=O)c3ccc4ccccc4c3)cc2C(=O)N2CCc3ccccc3C2)c(C)c1Cl [Example 1, N,N-Dibutyl-4-chloro-5-methyl-1-(4-(naphthalen-2-ylsulfonylcarbamoyl)-2-(1,2,3,4-tetrahydroisoquinoline-2-carbonyl)phenyl)-1H-pyrazole-3-carboxamide]
90 nM	90 nM	CCCCN(CCCC)C(=O)c1nn(-c2ccc(C(=O)NS(=O)(=O)c3ccc4ccc(Cl)cc4c3)cc2C(=O)N2CCc3ccccc3C2)c(C)c1Cl [Example 10, N,N-dibutyl-4-chloro-1-(4-(7-chloronaphthalen-2-ylsulfonylcarbamoyl)-2-(1,2,3,4-tetrahydroisoquinoline-2-carbonyl)phenyl)-5-methyl-1H-pyrazole-3-carboxamide]
–	50 nM	CCCCN(CCCC)C(=O)c1nn(-c2ccc(C(=O)NS(=O)(=O)c3ccc4ccc(I)cc4c3)cc2C(=O)N2CCc3ccccc3C2)c(C)c1Cl [Example 11, N,N-dibutyl-4-chloro-1-(4-(7-iodonaphthalen-2-ylsulfonylcarbamoyl)-2-(1,2,3,4-tetrahydroisoquinoline-2-carbonyl)phenyl)-5-methyl-1H-pyrazole-3-carboxamide]
